Values of other authors in patent publication US8628797B2, “Oral extended-release composition” (Andrx Pharmaceuticals, LLC, priority 2003, dated 2014).

conditions: in vivo

Compound | absorption in the presence of food
COc1c2occc2cc2ccc(=O)oc12 [8-methoxsalen] | increased

same assay, conditions: in words; literature review

Compound | absorption in the presence of food
C=CCOc1ccc(CC(=O)O)cc1Cl [alclofenac] | delayed
CC(=O)Oc1ccccc1C(=O)O [aspirin] | delayed
NS(=O)(=O)c1cc2c(cc1C(F)(F)F)NC(Cc1ccccc1)NS2(=O)=O (stereo not shown) [bendroflumethiazide] | unaffected
N[C@@H](C(=O)N[C@@H]1C(=O)N2C(C(=O)O)=C(Cl)CS[C@H]12)c1ccccc1 [cefaclor] | delayed
CN/C(=N/CCSCc1nc[nH]c1C)NC#N [cimetidine] | delayed
O=c1oc2ccccc2c(O)c1Cc1c(O)c2ccccc2oc1=O [dicoumarol] | increased
CCC(=O)O[C@H]1[C@H](O[C@@H]2[C@@H](C)[C@H](O[C@H]3C[C@@](C)(OC)[C@@H](O)[C@H](C)O3)[C@@H](C)C(=O)O[C@H](CC)[C@@](C)(O)[C@H](O)[C@@H](C)C(=O)[C@H](C)C[C@@]2(C)O)O[C@H](C)C[C@@H]1N(C)C [erythromycin estolate] | unaffected
CC(C(=O)O)c1ccc(N2Cc3ccccc3C2=O)cc1 (stereo not shown) [indoprofen] | delayed
O=C1CN(/N=C/c2ccc([N+](=O)[O-])o2)C(=O)N1 [nitrofurantoin] | increased
spiramycin | unaffected

conditions: 1 part drug in the stated parts of water

Compound | solubility
CC[C@H]1OC(=O)[C@H](C)[C@@H](O[C@H]2C[C@@](C)(OC)[C@@H](O)[C@H](C)O2)[C@H](C)[C@@H](O[C@@H]2O[C@H](C)C[C@H](N(C)C)[C@H]2O)[C@](C)(OC)C[C@@H](C)C(=O)[C@H](C)[C@@H](O)[C@]1(C)O [Clarithromycin, 6-O-methylerythromycin A] | ~1,000 parts of water
CC1Cc2ccccc2N1NC(=O)c1ccc(Cl)c(S(N)(=O)=O)c1 (stereo not shown) [indapamide] | more than 10,000 parts of water
